Patent publication US8551952B2, “Methods for the treatment and prevention of ocular disorders” (Scynexis, Inc., priority 2006, dated 2013)
Where two headings read alike, the source gives them in different places.

Experiments:
[1] = test system: IFN-γ; settings: read-out: Approximate IC50 for cytokine production IFN-γ; human T-lymphocytes stimulated with anti-CD3/anti-CD28 beads, 24 hours; average of cultures of two donors
Experimental: (§1) Assays with human cells are used to determine if compounds I) inhibit T-cell activation (using cytokine release as a biomarker), and 2) reduce or prevent cytokine-induced pathologies.
(§2) Compounds were incubated with stimulated human T-lymphocytes in an in vitro system designed to measure cytokine production; cytokine production is indicative of T-cell activation and consequential cytokine-induced damage in vivo. […] Cells were treated in triplicate with compounds or vehicle (DMSO) in cell culture medium for 2 hours at 37 deg C. Cells were then stimulated with 5 μL of anti-CD3/anti-CD28 ExpandBeads (DynaBeads, Invitrogen 111.31) and incubated for 24 hours. Compounds were tested at three concentrations: 0.02, 0.2 and 2 μM. Untreated controls were performed for each cytokine marker. The following cytokines were quantitatively determined using specific ELISA kits, according to manufacturer instructions: IL2 (Eli-pair, Diaclone), IL4 (ImmunoTools 313.300.49), tumor necrosis factor alpha (TNFα, ImmunoTools 313.330.1), and Interferon gamma (IFN-γ) Eli-pair, Diaclone).

[2] = test system: TNF-α; settings: read-out: Approximate IC50 for cytokine production TNF-α; human T-lymphocytes stimulated with anti-CD3/anti-CD28 beads, 24 hours; average of cultures of two donors
Experimental: as §1, §2

[3] = test system: IL4; settings: read-out: Approximate IC50 for cytokine production IL4; human T-lymphocytes stimulated with anti-CD3/anti-CD28 beads, 24 hours; average of cultures of two donors
Experimental: as §1, §2

[4] = test system: IL2; settings: read-out: Approximate IC50 for cytokine production IL2; human T-lymphocytes stimulated with anti-CD3/anti-CD28 beads, 24 hours; average of cultures of two donors
Experimental: as §1, §2

[5] = test system: T-cell proliferation (T-cells isolated from mouse spleens); settings: read-out: IC50 MLR; C57BL/6 responder and irradiated BALB/c stimulator spleen cells, 5 days
Experimental: Murine Mixed Lymphocyte Response (MLR) assay: This assay monitored T-cell proliferation by measurement of tritiated thymidine incorporation into DNA of T-cells isolated from mouse spleens; T-cell proliferation is directly proportional to tritium incorporation into DNA. Pooled spleen cells were prepared from three mice each of two strains: three C57BL/6 and three BALB/c mice. The C57BL/6 mice were used as the Responders (R) and BALB mice were the Stimulators (S) in the MLR. Complete medium consisted of RPMI 1640 supplemented with 25 mM HEPES, 10% heat-inactivated low background fetal bovine serum, 50 μM 2-mercatoethanol, 2 mM L-glutamine, and antibiotics.
The BALB/c spleen cells were gamma irradiated at 3000 Roentgen in a Bevill irradiator and washed once with medium to use as S cells; the stock of S cells was 1.6×10^6/mL in complete medium. The R cells were stocked at 8×10^5/mL in complete medium. Final cell densities were 2×10^5 R and 4×10^5 S per test well in a 96-well microtiter plate. Compounds were diluted from a 10 mM stock solution in DMSO into culture medium; compounds were tested at 10 concentrations between 0.001 and 30 μM (three-fold dilutions).
Background control wells contained 150 μL of medium/0.3% DMSO and 50 μL of R cells (2×10^5/well). All other wells contained 100 μL of medium/0.3% DMSO or compound (also in 0.3% DMSO), 50 μL of R cells (2×10^S/well), and 50 μL of S cells (4×10^5/well). Plates were incubated at 37° C. in 5% CO2 for 5 days, and subsequently pulsed with 1 μCi/well of 3H-thymidine for 6-18 hours. Cells were harvested, and tritium incorporation was measured using a scintillation counter.

[6] = test system: eyes of rabbits; settings: 0.05% (w/w) in an artificial tear formulation, instillation in right eyes over three days
Experimental: The compounds of the invention were evaluated for tolerability upon instillation in the eyes of rabbits over a three day test period. Rabbits receive five instillations within 20 minutes of fifty microliters of a solution of the test substance in vehicle once on Day 1, twice on Day 2 and four times on Day 3 in the right eyes. Evaluation of ocular irritancy was performed using the Draize scale (Draize et al. J. Pharmacol. Exp. Ther. 1944. 82: 377).

[7] = test system: chorio-allantoic membranes (CAM) of fertilized chicken eggs; settings: for Classification: HET-CAM classification of irritation potential; for Total Score: HET-CAM, sum of scores, average across eggs
Experimental: In this test, chorio-allantoic membranes (CAM) of fertilized chicken eggs are exposed to a solution of the test substance in sterile water. During an incubation period of approximately 5 minutes, irritancy is assessed by visual inspection of the CAM blood vessel network for haemorrhage, lysis and/or coagulation. The time of onset or appearance of each of these effects is scored numerically, the scores are summed to give a single numerical value, and an average numerical score across several eggs is obtained.

[8] = artificial tear formulation
Experimental: The solubilities of compounds in artificial tear formulations were determined using turbidimetric titration (Schote, et al., 2002. J Pharm Sciences 91(3):856). The different tear formulations are buffered and contain various physiological electrolytes including, sodium, potassium, phosphate, and chloride. The formulations differ primarily in the “active” ingredients that provide lubrication and viscosity.

[9] = HET-CAM score, approximately 5 minutes incubation

Row | Compound | IC50 [1] | IC50 [2] | IC50 [3] | IC50 [4] | IC50 [5] | Ocular tolerability (Draize scale) [6] | Classification [7] | Lysis [7, 9] | Total Score [7] | Minimum Solubility ([8]; pH 6.2, Polyethylene glycol 400 (1%), Polyvinyl alcohol (1%)) | Minimum Solubility ([8]; pH 6.7 (adjusted with HCl from 7.4), Dextran 70 (0.1%), Hydroxypropyl methyl-cellulose 2910 (0.3%)) | Minimum Solubility ([8]; pH 6.8, Carboxymethylcellulose sodium (0.5%)) | Minimum Solubility ([8]; pH 7.3, Propylene Glycol (0.95%), Glycerin (0.3%)) | Minimum Solubility ([8]; pH 7.4, Dextran 70 (0.1%), Hydroxypropyl methyl-cellulose 2910 (0.3%)) | Coagulation [7, 9] | Haemorhage [7, 9]
1 | 3-[2-(morpholin-4-yl)ethoxy]cyclosporin [F] | ~200 nM | ~200 nM | ~200 nM | ~20 nM | 500 nM |  |  |  |  |  |  |  |  |  |  | 
2 | C/C=C/C[C@@H](C)[C@@H](O)[C@H]1C(=O)N[C@@H](CC)C(=O)N(C)C(OCCN(C)C)C(=O)N(C)[C@@H](CC(C)C)C(=O)N[C@@H](C(C)C)C(=O)N(C)[C@@H](CC(C)C)C(=O)N[C@@H](C)C(=O)N[C@H](C)C(=O)N(C)[C@@H](CC(C)C)C(=O)N(C)[C@@H](CC(C)C)C(=O)N(C)[C@@H](C(C)C)C(=O)N1C (stereo partly shown) [Compound A, 3-[2-(N,N-dimethylamino)ethoxy]cyclosporin] | ~2000 nM | ~2000 nM | ~2000 nM |  | 200 nM | very well tolerated | Slightly irritant | 3.5 | 3.5 | 151 µM | 350 µM | 130 µM | 117 µM | 141 µM |  | 
3 | CC=CCC(C)C(O)C1C(=O)NC(CC)C(=O)N(C)C(OCCN2CCCCC2)C(=O)N(C)C(CC(C)C)C(=O)NC(C(C)C)C(=O)N(C)C(CC(C)C)C(=O)NC(C)C(=O)NC(C)C(=O)N(C)C(CC(C)C)C(=O)N(C)C(CC(C)C)C(=O)N(C)C(C(C)C)C(=O)N1C (stereo not shown) [D, 3-[2-(piperidin-1-yl)ethoxy]cyclosporin] | ~1000 nM | ~2000 nM | ~2000 nM | ~1000 nM | 200 nM |  | Slightly irritant | 3 | 3.0 |  |  |  |  |  | 0 | 0
